# Source: paper PMC9864331, “Biosynthesis of α-Bisabolol by Farnesyl Diphosphate Synthase and α-Bisabolol Synthase and Their Related Transcription Factors in Matricaria recutita L” (International Journal of Molecular Sciences, 2023)
# Biological target: T1, MrBBS (Matricaria chamomilla, UniProt A0A0A0RIB3)
# T1 construct: pCold TF (trigger factor) fusion, E. coli BL21(DE3) pLysS; assayed as crude enzyme
# T1 sequence (A0A0A0RIB3 1-572): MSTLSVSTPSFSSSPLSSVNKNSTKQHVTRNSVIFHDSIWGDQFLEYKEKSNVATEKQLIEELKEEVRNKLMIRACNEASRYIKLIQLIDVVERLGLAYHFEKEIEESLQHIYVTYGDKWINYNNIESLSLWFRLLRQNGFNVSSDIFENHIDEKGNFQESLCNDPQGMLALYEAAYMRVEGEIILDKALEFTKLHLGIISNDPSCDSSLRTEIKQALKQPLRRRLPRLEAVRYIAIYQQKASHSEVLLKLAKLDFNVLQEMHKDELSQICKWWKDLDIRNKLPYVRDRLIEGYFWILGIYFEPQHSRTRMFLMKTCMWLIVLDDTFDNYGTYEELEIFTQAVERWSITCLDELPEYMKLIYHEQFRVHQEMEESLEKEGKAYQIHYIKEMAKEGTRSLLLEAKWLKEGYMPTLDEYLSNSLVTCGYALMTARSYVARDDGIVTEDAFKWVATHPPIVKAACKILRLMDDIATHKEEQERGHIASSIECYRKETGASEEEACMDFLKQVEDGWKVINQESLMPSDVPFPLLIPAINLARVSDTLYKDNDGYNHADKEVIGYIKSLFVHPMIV
# Test: GC-MS of hexane-extracted products
# Format: biochemical
# Conditions: 100 µM FPP; 50 mM Tris-HCl pH 7.5; 10 mM MgCl2; 20 µg crude enzyme; product alpha-bisabolol
smiles,measurement,value
CC(C)=CCC/C(C)=C/CC/C(C)=C/COP(=O)(O)OP(=O)(O)O [FPP],GC-MS of hexane-extracted products,MrBBS catalyzed the conversion of FPP into α-bisabolol
